Assay results published in US20250092033A1, “HETEROAROMATIC NITROGEN-OXIDE COMPOUND, PREPARATION METHOD THEREFOR, AND USE THEREOF” (BEIJING AVISTONE BIOTECHNOLOGY CO., LTD., priority 2021, published 2025).

What follows are compounds tested against T1, wild type (WT) MET kinase (Homo sapiens, UniProt P08581) (assay: Kinase inhibition experiment (HTRF KinEASE-TK kit), wild-type MET). Settings: 10 concentrations, 3-fold dilution.
T1 construct: purchased Carna 08-151
Format: biochemical
Outline: (§1)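 Wild-type or mutant MET pre-incubated 10 min with compound (10 concentrations, 3-fold dilutions, duplicates), then TK-substrate-biotin/ATP added for 50 or 10 min at room temperature in buffer with 5 mM MgCl2, 1 mM DTT, 1 mM MnCl2. HTRF read at 665/615 nm; % inhibition vs controls, IC50 by nonlinear sigmoidal fit.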

T1 sequence (P08581 25-1390): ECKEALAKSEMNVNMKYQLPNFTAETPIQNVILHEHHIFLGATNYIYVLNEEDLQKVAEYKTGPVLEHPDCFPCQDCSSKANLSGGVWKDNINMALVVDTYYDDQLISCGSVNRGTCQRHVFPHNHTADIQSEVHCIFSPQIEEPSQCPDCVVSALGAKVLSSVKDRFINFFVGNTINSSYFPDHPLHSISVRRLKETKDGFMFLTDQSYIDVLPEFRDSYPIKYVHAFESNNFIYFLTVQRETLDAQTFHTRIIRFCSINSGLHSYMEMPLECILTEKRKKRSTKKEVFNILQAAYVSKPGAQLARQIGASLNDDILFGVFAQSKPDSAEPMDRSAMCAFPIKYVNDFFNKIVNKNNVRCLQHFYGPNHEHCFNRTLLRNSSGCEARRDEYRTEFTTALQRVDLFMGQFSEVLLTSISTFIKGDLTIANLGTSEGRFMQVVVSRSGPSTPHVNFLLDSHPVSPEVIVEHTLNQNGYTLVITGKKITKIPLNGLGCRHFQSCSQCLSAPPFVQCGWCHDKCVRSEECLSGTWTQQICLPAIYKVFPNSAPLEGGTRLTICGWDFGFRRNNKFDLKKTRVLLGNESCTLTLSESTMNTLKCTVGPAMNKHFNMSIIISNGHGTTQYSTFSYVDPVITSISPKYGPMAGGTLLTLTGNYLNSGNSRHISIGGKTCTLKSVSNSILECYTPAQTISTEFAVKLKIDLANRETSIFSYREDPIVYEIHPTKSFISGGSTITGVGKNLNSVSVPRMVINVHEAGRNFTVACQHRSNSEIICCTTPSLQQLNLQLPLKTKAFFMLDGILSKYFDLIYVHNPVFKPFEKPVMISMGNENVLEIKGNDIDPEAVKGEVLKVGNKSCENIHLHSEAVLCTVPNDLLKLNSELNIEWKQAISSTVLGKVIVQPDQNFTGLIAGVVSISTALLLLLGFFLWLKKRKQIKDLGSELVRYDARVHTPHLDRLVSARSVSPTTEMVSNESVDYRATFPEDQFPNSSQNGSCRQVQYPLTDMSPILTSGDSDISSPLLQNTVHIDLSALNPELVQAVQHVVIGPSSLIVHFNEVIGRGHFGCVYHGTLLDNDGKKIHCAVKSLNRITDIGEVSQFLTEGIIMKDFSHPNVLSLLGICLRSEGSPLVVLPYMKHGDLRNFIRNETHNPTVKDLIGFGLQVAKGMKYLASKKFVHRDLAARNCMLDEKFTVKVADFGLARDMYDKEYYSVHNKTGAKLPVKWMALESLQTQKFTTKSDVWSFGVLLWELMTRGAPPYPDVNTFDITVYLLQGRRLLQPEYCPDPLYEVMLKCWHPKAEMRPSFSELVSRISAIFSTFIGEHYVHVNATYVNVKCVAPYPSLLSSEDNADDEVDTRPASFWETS

SMILES	IC50 [nM]
Cc1ccc(C(=O)Nc2ccc(Oc3ccnc4[nH]nc(N[C@H](C)CO)c34)c(F)c2)[n+]([O-])c1-c1ccc(F)cc1 [Final product 67]	4
Cc1ccc(C(=O)Nc2ccc(Oc3ccnc4[nH]nc(NCC(O)CO)c34)c(F)c2)[n+]([O-])c1-c1ccc(F)cc1 (stereo not drawn) [Final product 69]	3
CCc1ccc(C(=O)Nc2ccc(Oc3ccnc4[nH]nc(N[C@H](C)CO)c34)c(F)c2)[n+]([O-])c1-c1ccc(F)cc1 [Final product 80]	1.5
COc1ccc(C(=O)Nc2ccc(Oc3ccnc4[nH]nc(N[C@H](C)CO)c34)c(F)c2)[n+]([O-])c1-c1ccc(F)cc1 [Final product 85]	3.7
C[C@H](CO)Nc1n[nH]c2nccc(Oc3ccc(NC(=O)c4cccc(-c5ccc(F)cc5)[n+]4[O-])cc3Cl)c12 [Final product 97]	3.3
C[C@H](CO)Nc1n[nH]c2nccc(Oc3ccc(NC(=O)c4ccc(F)c(-c5ccc(F)cc5)[n+]4[O-])cc3Cl)c12 [Final product 117]	0.9
Cc1ccc(C(=O)Nc2ccc(Oc3ccnc4[nH]nc(N[C@H](C)CO)c34)c(Cl)c2)[n+]([O-])c1-c1ccc(F)cc1 [Final product 124]	0.8
COc1ccc(C(=O)Nc2ccc(Oc3ccnc4[nH]nc(N[C@H](C)CO)c34)c(Cl)c2)[n+]([O-])c1-c1ccc(F)cc1 [Final product 138]	1.6
O=C(Nc1ccc(Oc2ccnc3[nH]cc(-c4cccnc4)c23)c(F)c1)c1ccc(Cl)c(-c2ccc(F)cc2)[n+]1[O-] [Final product 185, reference compound]	20.4

What follows are compounds tested against T2, MET F1200I (Homo sapiens, UniProt P08581, F1200I) (assay: Kinase inhibition experiment (HTRF KinEASE-TK kit), mutant MET F1200I). Settings: 10 concentrations, 3-fold dilution.
T2 construct: purchased Signalchem M52-12GG/Y767-2
Format: biochemical
Outline: as §1

T2 sequence (P08581 25-1390 F1200I): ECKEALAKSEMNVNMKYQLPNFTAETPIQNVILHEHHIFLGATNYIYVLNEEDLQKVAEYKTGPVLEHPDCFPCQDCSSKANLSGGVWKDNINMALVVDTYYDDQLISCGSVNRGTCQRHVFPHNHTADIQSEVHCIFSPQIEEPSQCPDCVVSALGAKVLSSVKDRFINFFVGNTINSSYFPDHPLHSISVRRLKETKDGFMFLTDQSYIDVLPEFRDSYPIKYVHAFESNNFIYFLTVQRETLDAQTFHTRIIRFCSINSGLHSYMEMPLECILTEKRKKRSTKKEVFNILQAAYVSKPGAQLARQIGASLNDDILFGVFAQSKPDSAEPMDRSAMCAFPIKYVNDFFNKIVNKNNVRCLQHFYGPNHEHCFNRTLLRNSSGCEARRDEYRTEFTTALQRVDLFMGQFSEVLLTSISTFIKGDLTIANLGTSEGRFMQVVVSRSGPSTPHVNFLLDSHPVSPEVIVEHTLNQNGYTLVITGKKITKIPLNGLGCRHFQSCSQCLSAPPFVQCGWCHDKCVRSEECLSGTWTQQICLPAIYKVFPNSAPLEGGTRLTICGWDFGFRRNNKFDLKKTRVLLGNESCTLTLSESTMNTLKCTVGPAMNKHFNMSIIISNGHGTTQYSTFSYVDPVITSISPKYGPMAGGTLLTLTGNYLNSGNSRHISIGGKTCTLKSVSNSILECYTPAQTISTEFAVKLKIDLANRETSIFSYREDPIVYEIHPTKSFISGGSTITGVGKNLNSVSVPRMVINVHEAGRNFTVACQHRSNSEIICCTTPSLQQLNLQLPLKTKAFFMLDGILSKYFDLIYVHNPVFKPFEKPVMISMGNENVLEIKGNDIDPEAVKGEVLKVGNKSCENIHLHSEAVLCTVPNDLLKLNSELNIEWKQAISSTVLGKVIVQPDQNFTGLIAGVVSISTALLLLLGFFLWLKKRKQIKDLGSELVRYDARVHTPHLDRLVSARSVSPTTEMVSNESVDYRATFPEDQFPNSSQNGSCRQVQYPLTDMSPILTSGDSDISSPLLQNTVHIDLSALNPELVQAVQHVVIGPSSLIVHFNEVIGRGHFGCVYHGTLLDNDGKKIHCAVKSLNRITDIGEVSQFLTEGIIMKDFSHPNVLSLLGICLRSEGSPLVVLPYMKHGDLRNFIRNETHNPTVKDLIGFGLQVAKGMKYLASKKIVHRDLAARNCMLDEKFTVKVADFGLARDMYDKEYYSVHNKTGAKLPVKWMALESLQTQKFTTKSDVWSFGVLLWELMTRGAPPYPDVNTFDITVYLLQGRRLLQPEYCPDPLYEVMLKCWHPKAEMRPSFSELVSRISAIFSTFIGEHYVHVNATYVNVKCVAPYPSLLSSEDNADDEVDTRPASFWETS

SMILES	IC50 [nM]
Cc1ccc(C(=O)Nc2ccc(Oc3ccnc4[nH]nc(N[C@H](C)CO)c34)c(F)c2)[n+]([O-])c1-c1ccc(F)cc1 [Final product 67]	16.3
Cc1ccc(C(=O)Nc2ccc(Oc3ccnc4[nH]nc(NCC(O)CO)c34)c(F)c2)[n+]([O-])c1-c1ccc(F)cc1 (stereo not drawn) [Final product 69]	12.3
CCc1ccc(C(=O)Nc2ccc(Oc3ccnc4[nH]nc(N[C@H](C)CO)c34)c(F)c2)[n+]([O-])c1-c1ccc(F)cc1 [Final product 80]	2.3
COc1ccc(C(=O)Nc2ccc(Oc3ccnc4[nH]nc(N[C@H](C)CO)c34)c(F)c2)[n+]([O-])c1-c1ccc(F)cc1 [Final product 85]	2.3
C[C@H](CO)Nc1n[nH]c2nccc(Oc3ccc(NC(=O)c4cccc(-c5ccc(F)cc5)[n+]4[O-])cc3Cl)c12 [Final product 97]	7
C[C@H](CO)Nc1n[nH]c2nccc(Oc3ccc(NC(=O)c4ccc(F)c(-c5ccc(F)cc5)[n+]4[O-])cc3Cl)c12 [Final product 117]	0.9
Cc1ccc(C(=O)Nc2ccc(Oc3ccnc4[nH]nc(N[C@H](C)CO)c34)c(Cl)c2)[n+]([O-])c1-c1ccc(F)cc1 [Final product 124]	0.8
COc1ccc(C(=O)Nc2ccc(Oc3ccnc4[nH]nc(N[C@H](C)CO)c34)c(Cl)c2)[n+]([O-])c1-c1ccc(F)cc1 [Final product 138]	0.6
O=C(Nc1ccc(Oc2ccnc3[nH]cc(-c4cccnc4)c23)c(F)c1)c1ccc(Cl)c(-c2ccc(F)cc2)[n+]1[O-] [Final product 185, reference compound]	187

The compounds below were run against T3, MET D1228N (Homo sapiens, UniProt P08581, D1228N) (assay: Kinase inhibition experiment (HTRF KinEASE-TK kit), mutant MET D1228N). Settings: 10 concentrations, 3-fold dilution.
T3 construct: purchased Signalchem M52-12IG
Format: biochemical
Outline: as §1

T3 sequence (P08581 25-1390 D1228N): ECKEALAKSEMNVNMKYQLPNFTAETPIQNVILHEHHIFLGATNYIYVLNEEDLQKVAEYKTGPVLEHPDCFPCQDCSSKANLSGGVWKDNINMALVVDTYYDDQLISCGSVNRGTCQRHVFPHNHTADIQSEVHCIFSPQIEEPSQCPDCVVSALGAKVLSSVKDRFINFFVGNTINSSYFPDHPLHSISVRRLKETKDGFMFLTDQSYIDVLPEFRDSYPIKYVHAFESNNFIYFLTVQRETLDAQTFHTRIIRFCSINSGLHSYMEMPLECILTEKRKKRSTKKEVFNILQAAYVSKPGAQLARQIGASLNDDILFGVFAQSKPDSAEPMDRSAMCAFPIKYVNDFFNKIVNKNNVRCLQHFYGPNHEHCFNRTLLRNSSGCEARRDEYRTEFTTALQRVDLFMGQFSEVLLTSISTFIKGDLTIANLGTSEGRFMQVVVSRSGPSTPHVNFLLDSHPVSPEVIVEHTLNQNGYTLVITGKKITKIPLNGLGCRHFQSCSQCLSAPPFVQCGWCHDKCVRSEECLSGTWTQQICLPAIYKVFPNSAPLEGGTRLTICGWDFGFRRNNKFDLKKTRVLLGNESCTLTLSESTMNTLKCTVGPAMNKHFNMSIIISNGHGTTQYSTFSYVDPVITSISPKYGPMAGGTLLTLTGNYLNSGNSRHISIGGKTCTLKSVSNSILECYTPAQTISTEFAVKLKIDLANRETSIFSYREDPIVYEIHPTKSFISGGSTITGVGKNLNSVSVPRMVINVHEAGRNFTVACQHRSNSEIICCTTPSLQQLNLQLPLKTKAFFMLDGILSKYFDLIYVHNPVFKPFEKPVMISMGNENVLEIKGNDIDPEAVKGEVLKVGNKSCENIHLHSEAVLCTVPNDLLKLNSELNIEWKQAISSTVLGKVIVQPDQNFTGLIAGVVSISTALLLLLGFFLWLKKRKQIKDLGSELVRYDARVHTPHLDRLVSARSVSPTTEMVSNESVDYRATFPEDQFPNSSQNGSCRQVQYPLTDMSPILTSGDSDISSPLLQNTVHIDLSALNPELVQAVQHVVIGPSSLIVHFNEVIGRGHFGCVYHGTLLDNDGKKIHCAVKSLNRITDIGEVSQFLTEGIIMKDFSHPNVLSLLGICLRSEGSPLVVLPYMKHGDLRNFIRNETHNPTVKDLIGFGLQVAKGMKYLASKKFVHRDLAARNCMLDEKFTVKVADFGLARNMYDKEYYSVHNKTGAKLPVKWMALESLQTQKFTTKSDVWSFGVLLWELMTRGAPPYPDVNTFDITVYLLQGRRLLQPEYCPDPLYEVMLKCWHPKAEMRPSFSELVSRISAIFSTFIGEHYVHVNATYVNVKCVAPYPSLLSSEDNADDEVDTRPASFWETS

SMILES	IC50 [nM]
Cc1ccc(C(=O)Nc2ccc(Oc3ccnc4[nH]nc(N[C@H](C)CO)c34)c(F)c2)[n+]([O-])c1-c1ccc(F)cc1 [Final product 67]	12.3
Cc1ccc(C(=O)Nc2ccc(Oc3ccnc4[nH]nc(NCC(O)CO)c34)c(F)c2)[n+]([O-])c1-c1ccc(F)cc1 (stereo not drawn) [Final product 69]	25.4
CCc1ccc(C(=O)Nc2ccc(Oc3ccnc4[nH]nc(N[C@H](C)CO)c34)c(F)c2)[n+]([O-])c1-c1ccc(F)cc1 [Final product 80]	9.8
COc1ccc(C(=O)Nc2ccc(Oc3ccnc4[nH]nc(N[C@H](C)CO)c34)c(F)c2)[n+]([O-])c1-c1ccc(F)cc1 [Final product 85]	10.5
C[C@H](CO)Nc1n[nH]c2nccc(Oc3ccc(NC(=O)c4cccc(-c5ccc(F)cc5)[n+]4[O-])cc3Cl)c12 [Final product 97]	20.8
C[C@H](CO)Nc1n[nH]c2nccc(Oc3ccc(NC(=O)c4ccc(F)c(-c5ccc(F)cc5)[n+]4[O-])cc3Cl)c12 [Final product 117]	17.8
Cc1ccc(C(=O)Nc2ccc(Oc3ccnc4[nH]nc(N[C@H](C)CO)c34)c(Cl)c2)[n+]([O-])c1-c1ccc(F)cc1 [Final product 124]	7.6
COc1ccc(C(=O)Nc2ccc(Oc3ccnc4[nH]nc(N[C@H](C)CO)c34)c(Cl)c2)[n+]([O-])c1-c1ccc(F)cc1 [Final product 138]	38.5
O=C(Nc1ccc(Oc2ccnc3[nH]cc(-c4cccnc4)c23)c(F)c1)c1ccc(Cl)c(-c2ccc(F)cc2)[n+]1[O-] [Final product 185, reference compound]	62

These compounds were tested on Hs746T cell line (assay: Cell proliferation inhibition experiment (CellTiter-Glo), Hs746T). Settings: Homo sapiens, Hs 746T, CTG, 72 h.
Format: cell-based
Procedure: (§2) CellTiter-Glo™ live cell detection kit adopts luciferase as the detection substance, and the luciferase needs the participation of ATP in the luminescence process. CellTiter-Glo™ reagent was added into the cell culture medium and the luminescence value was measured. The light signal is in direct proportion to the amount of ATP in the system, ATP is in direct correlation with number of living cells. Therefore, the proliferation of cells can be detected by detecting the content of ATP with CellTiter-Glo kit.
(§3) In the experiment, the proliferation inhibition effect of the prepared compounds on tumor cell lines Hs746T, EBC-1 and H1993 was measured by a celltiter-glo (CTG) method, and 50% inhibition concentration IC50 was calculated.
(§4) The compounds were determined on the selected cells, the solvent control was set and a total of 10 concentrations were detected, 2 replicates per concentration.
(§5) a) Cells in the logarithmic growth phase were harvested and counted by a […]. The cell viability was detected by a trypan blue exclusion method to ensure that the cell viability was over 90%.
(§6) b) The cell concentration was adjusted; 30 μL of cell suspension was added to a 384-well plate respectively.
(§7) c) Cells in a 384-well plate were incubated overnight at 37° C., 5% CO2 and 95% humidity.
(§8) a) 10 times of drug solution was prepared with the highest concentration of 10 mM, 10 concentrations and 3 times dilution, 10 μL of drug solution was added into each well of a 384-well plate inoculated with cells, and three multiple wells were arranged for each drug concentration. DMSO was the blank control.
(§9) b) The cells in the 384-well plate were incubated for a further 72 h at 37° C., 5% CO2 and 95% humidity before CTG analysis.
(§10) a) The CTG reagent was melted and the cell plate was equilibrated to room temperature for 30 min.
(§11) b) An equal volume of CTG solution was added to each well.
(§12) c) Cells were lysed by shaking on an orbital shaker for 5 minutes.
(§13) d) The cell plate was left at room temperature for 20 minutes to stabilize the luminescence signal.
(§14) e) The cold light value was read.
(§15) The data was analyzed by GraphPad Prism 8 software, and the dose-response curve was fitted with nonlinear S-curve regression, and the IC50 value was calculated therefrom.
(§16) Cell viability(%)=(Lumdrugs to be tested-Lumblank control)/(Lumcell control-Lumblank control)×100%.

SMILES	IC50 [nM]
Cc1ccc(C(=O)Nc2ccc(Oc3ccnc4[nH]nc(N[C@H](C)CO)c34)c(F)c2)[n+]([O-])c1-c1ccc(F)cc1 [Final product 67]	4.2
Cc1ccc(C(=O)Nc2ccc(Oc3ccnc4[nH]nc(NCC(O)CO)c34)c(F)c2)[n+]([O-])c1-c1ccc(F)cc1 (stereo not drawn) [Final product 69]	19.6
CCc1ccc(C(=O)Nc2ccc(Oc3ccnc4[nH]nc(N[C@H](C)CO)c34)c(F)c2)[n+]([O-])c1-c1ccc(F)cc1 [Final product 80]	9.6
COc1ccc(C(=O)Nc2ccc(Oc3ccnc4[nH]nc(N[C@H](C)CO)c34)c(F)c2)[n+]([O-])c1-c1ccc(F)cc1 [Final product 85]	9.4
C[C@H](CO)Nc1n[nH]c2nccc(Oc3ccc(NC(=O)c4cccc(-c5ccc(F)cc5)[n+]4[O-])cc3Cl)c12 [Final product 97]	12.1
C[C@H](CO)Nc1n[nH]c2nccc(Oc3ccc(NC(=O)c4ccc(F)c(-c5ccc(F)cc5)[n+]4[O-])cc3Cl)c12 [Final product 117]	7
Cc1ccc(C(=O)Nc2ccc(Oc3ccnc4[nH]nc(N[C@H](C)CO)c34)c(Cl)c2)[n+]([O-])c1-c1ccc(F)cc1 [Final product 124]	21.9
COc1ccc(C(=O)Nc2ccc(Oc3ccnc4[nH]nc(N[C@H](C)CO)c34)c(Cl)c2)[n+]([O-])c1-c1ccc(F)cc1 [Final product 138]	8.7
O=C(Nc1ccc(Oc2ccnc3[nH]cc(-c4cccnc4)c23)c(F)c1)c1ccc(Cl)c(-c2ccc(F)cc2)[n+]1[O-] [Final product 185, reference compound]	155

These compounds were tested on H1993 cell line (assay: Cell proliferation inhibition experiment (CellTiter-Glo), H1993). Settings: Homo sapiens, NCI-H1993, CTG, 72 h.
Format: cell-based
Procedure: as §2, §3, §4, §5, §6, §7, §8, §9, §10, §11, §12, §13, §14, §15, §16

SMILES	IC50 [nM]
Cc1ccc(C(=O)Nc2ccc(Oc3ccnc4[nH]nc(N[C@H](C)CO)c34)c(F)c2)[n+]([O-])c1-c1ccc(F)cc1 [Final product 67]	19.1
Cc1ccc(C(=O)Nc2ccc(Oc3ccnc4[nH]nc(NCC(O)CO)c34)c(F)c2)[n+]([O-])c1-c1ccc(F)cc1 (stereo not drawn) [Final product 69]	68.4
CCc1ccc(C(=O)Nc2ccc(Oc3ccnc4[nH]nc(N[C@H](C)CO)c34)c(F)c2)[n+]([O-])c1-c1ccc(F)cc1 [Final product 80]	26.8
COc1ccc(C(=O)Nc2ccc(Oc3ccnc4[nH]nc(N[C@H](C)CO)c34)c(F)c2)[n+]([O-])c1-c1ccc(F)cc1 [Final product 85]	29.6
C[C@H](CO)Nc1n[nH]c2nccc(Oc3ccc(NC(=O)c4cccc(-c5ccc(F)cc5)[n+]4[O-])cc3Cl)c12 [Final product 97]	36.4
C[C@H](CO)Nc1n[nH]c2nccc(Oc3ccc(NC(=O)c4ccc(F)c(-c5ccc(F)cc5)[n+]4[O-])cc3Cl)c12 [Final product 117]	57.2
Cc1ccc(C(=O)Nc2ccc(Oc3ccnc4[nH]nc(N[C@H](C)CO)c34)c(Cl)c2)[n+]([O-])c1-c1ccc(F)cc1 [Final product 124]	29.9
COc1ccc(C(=O)Nc2ccc(Oc3ccnc4[nH]nc(N[C@H](C)CO)c34)c(Cl)c2)[n+]([O-])c1-c1ccc(F)cc1 [Final product 138]	29.3
O=C(Nc1ccc(Oc2ccnc3[nH]cc(-c4cccnc4)c23)c(F)c1)c1ccc(Cl)c(-c2ccc(F)cc2)[n+]1[O-] [Final product 185, reference compound]	204

The compounds below were run on EBC-1 cell line (assay: Cell proliferation inhibition experiment (CellTiter-Glo), EBC-1). Settings: Homo sapiens, CTG, 72 h.
Format: cell-based
Procedure: as §2, §3, §4, §5, §6, §7, §8, §9, §10, §11, §12, §13, §14, §15, §16

SMILES	IC50 [nM]
Cc1ccc(C(=O)Nc2ccc(Oc3ccnc4[nH]nc(N[C@H](C)CO)c34)c(F)c2)[n+]([O-])c1-c1ccc(F)cc1 [Final product 67]	6.6
Cc1ccc(C(=O)Nc2ccc(Oc3ccnc4[nH]nc(NCC(O)CO)c34)c(F)c2)[n+]([O-])c1-c1ccc(F)cc1 (stereo not drawn) [Final product 69]	29.3
CCc1ccc(C(=O)Nc2ccc(Oc3ccnc4[nH]nc(N[C@H](C)CO)c34)c(F)c2)[n+]([O-])c1-c1ccc(F)cc1 [Final product 80]	8.7
COc1ccc(C(=O)Nc2ccc(Oc3ccnc4[nH]nc(N[C@H](C)CO)c34)c(F)c2)[n+]([O-])c1-c1ccc(F)cc1 [Final product 85]	10.4
C[C@H](CO)Nc1n[nH]c2nccc(Oc3ccc(NC(=O)c4cccc(-c5ccc(F)cc5)[n+]4[O-])cc3Cl)c12 [Final product 97]	12.9
C[C@H](CO)Nc1n[nH]c2nccc(Oc3ccc(NC(=O)c4ccc(F)c(-c5ccc(F)cc5)[n+]4[O-])cc3Cl)c12 [Final product 117]	17.2
Cc1ccc(C(=O)Nc2ccc(Oc3ccnc4[nH]nc(N[C@H](C)CO)c34)c(Cl)c2)[n+]([O-])c1-c1ccc(F)cc1 [Final product 124]	14.9
COc1ccc(C(=O)Nc2ccc(Oc3ccnc4[nH]nc(N[C@H](C)CO)c34)c(Cl)c2)[n+]([O-])c1-c1ccc(F)cc1 [Final product 138]	9.4
O=C(Nc1ccc(Oc2ccnc3[nH]cc(-c4cccnc4)c23)c(F)c1)c1ccc(Cl)c(-c2ccc(F)cc2)[n+]1[O-] [Final product 185, reference compound]	133
